The Kinase Knowledgebase extract (Sharma et al. 2016)

Biological target: EGFR (human) (UniProt P00533)
Sequence (P00533 whole entry, looked up): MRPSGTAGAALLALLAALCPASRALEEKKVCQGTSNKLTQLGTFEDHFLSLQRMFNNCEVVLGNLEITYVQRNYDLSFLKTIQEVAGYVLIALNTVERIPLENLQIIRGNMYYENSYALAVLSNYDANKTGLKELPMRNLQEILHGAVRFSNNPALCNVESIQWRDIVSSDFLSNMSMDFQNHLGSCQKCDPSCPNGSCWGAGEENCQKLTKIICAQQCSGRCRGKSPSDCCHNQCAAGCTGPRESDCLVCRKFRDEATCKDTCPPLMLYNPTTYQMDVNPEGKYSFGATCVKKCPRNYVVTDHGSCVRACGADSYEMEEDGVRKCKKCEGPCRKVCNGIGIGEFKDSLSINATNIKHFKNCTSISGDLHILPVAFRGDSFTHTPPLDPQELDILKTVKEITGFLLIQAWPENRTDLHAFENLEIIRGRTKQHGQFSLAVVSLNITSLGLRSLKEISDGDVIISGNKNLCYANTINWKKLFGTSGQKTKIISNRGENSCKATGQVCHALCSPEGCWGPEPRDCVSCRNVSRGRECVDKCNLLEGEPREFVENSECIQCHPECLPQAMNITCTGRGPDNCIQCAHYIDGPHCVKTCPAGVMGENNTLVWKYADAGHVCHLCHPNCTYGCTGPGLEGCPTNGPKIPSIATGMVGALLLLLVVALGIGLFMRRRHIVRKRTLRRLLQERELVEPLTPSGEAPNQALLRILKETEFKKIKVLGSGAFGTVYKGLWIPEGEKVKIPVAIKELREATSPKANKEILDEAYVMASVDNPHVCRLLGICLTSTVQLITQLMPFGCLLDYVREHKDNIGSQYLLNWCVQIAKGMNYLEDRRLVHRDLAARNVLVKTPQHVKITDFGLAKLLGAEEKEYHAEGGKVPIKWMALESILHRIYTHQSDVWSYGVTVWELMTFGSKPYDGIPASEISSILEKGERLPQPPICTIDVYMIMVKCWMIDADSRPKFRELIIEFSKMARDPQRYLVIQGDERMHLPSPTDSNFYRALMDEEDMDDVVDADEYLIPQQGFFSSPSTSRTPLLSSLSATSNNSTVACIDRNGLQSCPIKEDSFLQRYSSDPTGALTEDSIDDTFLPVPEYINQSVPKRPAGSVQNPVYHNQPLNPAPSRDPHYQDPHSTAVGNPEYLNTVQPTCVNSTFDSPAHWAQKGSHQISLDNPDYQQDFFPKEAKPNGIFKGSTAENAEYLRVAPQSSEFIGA

SMILES | IC50 [nM]
CCOc1ccc(Nc2nccc(-c3sc(C(C)C)nc3-c3ccc(F)c(NS(=O)(=O)c4c(F)cccc4F)c3)n2)cc1N1CCN(CCF)CC1 | < 100
CC(C)c1nc(-c2cccc(NS(=O)(=O)c3c(F)cccc3F)c2)c(-c2ccnc(Nc3ccc(N4CCN(CCF)CC4)c(F)c3)n2)s1 | 100 to 1000
COc1cc(CCN2CCCCC2)c(F)cc1Nc1nccc(-c2sc(C(C)C)nc2-c2cccc(NS(=O)(=O)c3c(F)cccc3F)c2)n1 | 100 to 1000
CC(C)c1nc(-c2cccc(NS(=O)(=O)c3ccccc3)c2)c(-c2ccnc(Nc3ccc(CC4CCN(CCS(C)(=O)=O)CC4)c(F)c3)n2)s1 | 100 to 1000
O=S(=O)(Nc1cc(-c2nc(N3CCCC3)sc2-c2ccnc(Nc3ccc(N4CCOCC4)nc3)n2)ccc1F)c1c(F)cccc1F | 100 to 1000
CCc1nc(-c2cccc(NS(=O)(=O)c3ccccc3)c2)c(-c2ccnc(Nc3ccc(OC)c(N4CCN(CCS(C)(=O)=O)CC4)c3)n2)s1 | 100 to 1000
CCNc1nc(-c2cccc(NS(=O)(=O)c3c(F)cccc3F)c2)c(-c2ccnc(Nc3ccc(N4CCOCC4)nc3)n2)s1 | 100 to 1000
CC(C)c1nc(-c2cccc(NS(=O)(=O)c3cccnc3)c2)c(-c2ccnc(Nc3ccc(N4CCOCC4)nc3)n2)s1 | 100 to 1000
CC(C)c1nc(-c2cccc(NS(=O)(=O)c3c(F)cccc3F)c2)c(-c2ccnc(Nc3ccc(N4CC[C@@H](O)C4)nc3)n2)s1 | 100 to 1000
CC(=O)N1CCN(c2ccc(Nc3nccc(-c4sc(C(C)C)nc4-c4cccc(NS(=O)(=O)c5cc(F)ccc5F)c4)n3)cn2)CC1 | 100 to 1000
COc1cc(N2CCN(CCS(C)(=O)=O)CC2)c(C)cc1Nc1nccc(-c2sc(C3CC3)nc2-c2cccc(NS(=O)(=O)c3c(F)cccc3F)c2)n1 | 100 to 1000
CC(C)c1nc(-c2ccc(F)c(NS(=O)(=O)c3c(F)cccc3F)c2)c(-c2ccnc(Nc3ccc(N4CCN(CCF)CC4)c(F)c3)n2)s1 | 100 to 1000
COc1cc(N2CCC3(CC2)CCN(S(C)(=O)=O)CC3)c(C)cc1Nc1nccc(-c2sc(C(C)C)nc2-c2cccc(NS(=O)(=O)c3c(F)cccc3F)c2F)n1 | 100 to 1000
CC(C)c1nc(-c2ccc(F)c(NS(=O)(=O)c3c(F)cccc3F)c2)c(-c2ccnc(Nc3ccc(N4CCN5CCOC[C@H]5C4)nc3)n2)s1 | 100 to 1000
CCNc1nc(-c2ccc(F)c(NS(=O)(=O)c3c(F)cccc3F)c2)c(-c2ccnc(Nc3ccc(N4CCOCC4)nc3)n2)s1 | 100 to 1000
CC(C)c1nc(-c2cccc(NS(=O)(=O)c3c(F)cccc3F)c2)c(-c2ccnc(Nc3ccc(N4CCOCC4)c(F)c3)n2)o1 | 100 to 1000
CC(C)c1nc(-c2ccc(F)c(NS(=O)(=O)c3c(F)cccc3F)c2)c(-c2ccnc(Nc3ccc(N4CCN(CCS(C)(=O)=O)CC4)c(F)c3)n2)s1 | 100 to 1000
CN1CCN(c2nc(-c3ccc(F)c(NS(=O)(=O)c4c(F)cccc4F)c3)c(-c3ccnc(Nc4ccc(N5CCOCC5)nc4)n3)s2)CC1 | 100 to 1000
CC(C)c1nc(-c2cccc(NS(=O)(=O)c3ccccc3)c2)c(-c2ccnc(Nc3ccc(F)c(N4CCN(CCS(C)(=O)=O)CC4)c3)n2)s1 | 100 to 1000
CS(=O)(=O)CCN1CCN(c2ccc(Nc3nccc(-c4oc(N5CCCC5)nc4-c4cccc(NS(=O)(=O)c5c(F)cccc5F)c4F)n3)cc2F)CC1 | 100 to 1000

SMILES | IC50 [nM]
CC(C)c1nc(-c2cccc(NS(=O)(=O)c3c(F)cccc3F)c2)c(-c2ccnc(Nc3ccc(N4CCCN(CCS(C)(=O)=O)CC4)nc3)n2)s1 | 100 to 1000
O=S(=O)(Nc1cc(-c2nc(N3CCOCC3)sc2-c2ccnc(Nc3ccc(N4CCOCC4)nc3)n2)ccc1F)c1c(F)cccc1F | 100 to 1000
CC(C)c1nc(-c2cc(F)cc(NS(=O)(=O)c3c(F)cccc3F)c2)c(-c2ccnc(Nc3ccc(N4CCOCC4)nc3)n2)s1 | 100 to 1000
O=S(=O)(Nc1cccc(-c2ncsc2-c2ccnc(Nc3ccc(N4CCOCC4)nc3)n2)c1)c1c(F)cccc1F | 100 to 1000
CN(C)c1nc(-c2ccc(F)c(NS(=O)(=O)c3c(F)cccc3F)c2)c(-c2ccnc(Nc3ccc(N4CCOCC4)nc3)n2)s1 | 100 to 1000
COc1cc(N2CCN(CCF)CC2)ccc1Nc1nccc(-c2sc(C(C)C)nc2-c2cccc(NS(=O)(=O)c3c(F)cccc3F)c2)n1 | 100 to 1000
O=S(=O)(Nc1cc(-c2nc(N3CCOCC3)sc2-c2ccnc(Nc3ccc4c(c3)OCCO4)n2)ccc1F)c1c(F)cccc1F | 100 to 1000
Nc1nc(-c2ccc(F)c(NS(=O)(=O)c3c(F)cccc3F)c2)c(-c2ccnc(Nc3ccc(N4CCOCC4)nc3)n2)s1 | 100 to 1000
CC(C)c1nc(-c2ccc(F)c(NS(=O)(=O)c3c(F)cccc3F)c2)c(-c2ccnc(Nc3ccc(N4CCOCC4)nc3)n2)s1 | 100 to 1000
CC(C)c1nc(-c2ccc(F)c(NS(=O)(=O)c3c(F)cccc3F)c2)c(-c2ccnc(Nc3cccc(CCS(N)(=O)=O)c3)n2)s1 | 100 to 1000
COc1cc2c(cc1Nc1nccc(-c3sc(C(C)C)nc3-c3cccc(NS(=O)(=O)c4c(F)cccc4F)c3)n1)N(C(=O)CN(C)C)CC2 | 100 to 1000
CC(C)c1nc(-c2ccc(F)c(NS(=O)(=O)c3ccccc3C#N)c2)c(-c2ccnc(Nc3ccc(N4CCOCC4)nc3)n2)s1 | 100 to 1000
CC(C)c1nc(-c2cccc(NS(=O)(=O)c3c(F)cccc3F)c2)c(-c2ccnc(Nc3ccc(N4CCOCC4)nc3)n2)s1 | 100 to 1000
CCc1nc(-c2cccc(CNS(=O)(=O)c3ccccc3)c2)c(-c2ccnc(Nc3ccc(N4CCN(C(C)=O)CC4)nc3)n2)s1 | 100 to 1000
O=S1(=O)Cc2ccc(Nc3nccc(-c4sc(N5CCOCC5)nc4-c4cccc(NS(=O)(=O)c5c(F)cccc5F)c4F)n3)cc2C1 | 100 to 1000
COc1cc(N2CCN(CCS(C)(=O)=O)CC2)c(C)cc1Nc1nccc(-c2sc(C(C)C)nc2-c2cccc(NS(=O)(=O)c3cccnc3)c2)n1 | 100 to 1000
COc1cc(N2CCN(CCS(C)(=O)=O)CC2)c(C)cc1Nc1nccc(-c2sc(N)nc2-c2cccc(NS(=O)(=O)c3c(F)cccc3F)c2)n1 | 100 to 1000
CCc1nc(-c2ccc(F)c(NS(=O)(=O)c3ccccc3)c2)c(-c2ccnc(Nc3ccc(N4CCN(C(C)C)CC4)cc3OC)n2)s1 | 100 to 1000
COc1ccc(S(C)(=O)=O)cc1Nc1nccc(-c2sc(C(C)C)nc2-c2cccc(NS(=O)(=O)c3c(F)cccc3F)c2F)n1 | 100 to 1000

Results, then the compound that gave them:

IC50 [nM] | SMILES
100 to 1000 | CC(C)c1nc(-c2ccc(F)c(NS(=O)(=O)c3ccccc3F)c2)c(-c2ccnc(Nc3ccc(N4CCN(CCS(C)(=O)=O)CC4)c(F)c3)n2)s1
100 to 1000 | CC(=O)N1CCc2cc(Nc3nccc(-c4sc(C(C)C)nc4-c4cccc(NS(=O)(=O)c5ccccc5)c4)n3)ccc21
100 to 1000 | CC(C)c1nc(-c2cccc(NS(=O)(=O)c3ccccc3)c2)c(-c2ccnc(Nc3ccc(N4CCOCC4)nc3)n2)s1
100 to 1000 | CC(C)c1nc(-c2cccc(NS(=O)(=O)c3c(F)cccc3F)c2)c(-c2ccnc(Nc3ccc(N4CCN(CCS(C)(=O)=O)CC4)c(F)c3)n2)s1
100 to 1000 | CC(C)c1nc(-c2cccc(NS(=O)(=O)c3c(F)cccc3F)c2)c(-c2ccnc(Nc3ccc(N4CCOCC4)c(C(=O)O)c3)n2)s1
100 to 1000 | COc1ccc(S(C)(=O)=O)cc1Nc1nccc(-c2sc(C(C)C)nc2-c2cccc(NS(=O)(=O)c3c(F)cccc3F)n2)n1
< 100 | CC(C)c1nc(-c2cccc(NS(=O)(=O)c3c(F)cccc3F)c2)c(-c2ccnc(Nc3ccc(N4CCN(CCO)CC4)nc3)n2)s1
< 100 | COc1cc(N2CCC(N3CCN(CCS(C)(=O)=O)CC3)CC2)ccc1Nc1nccc(-c2sc(C(C)C)nc2-c2cccc(NS(=O)(=O)c3c(F)cccc3F)c2)n1
100 to 1000 | Cc1cc(Nc2nccc(-c3sc(C(C)C)nc3-c3ccc(F)c(NS(=O)(=O)c4c(F)cccc4F)c3)n2)ccn1
100 to 1000 | CCc1nc(-c2cccc(CNS(=O)(=O)c3ccccc3)c2)c(-c2ccnc(Nc3ccc(N4CCN(CCS(C)(=O)=O)CC4)c(F)c3)n2)s1
< 100 | COc1cc(N2CCN(CCS(C)(=O)=O)CC2)c(C)cc1Nc1nccc(-c2sc(C(C)C)nc2-c2cccc(NS(=O)(=O)c3c(F)cccc3F)c2F)n1
< 100 | CC(=O)N1CCN(c2ccc(Nc3nccc(-c4sc(C(C)C)nc4-c4cccc(NS(=O)(=O)c5cn(C)cn5)c4)n3)cn2)CC1
< 100 | COc1cc(Nc2nccc(-c3sc(C(C)C)nc3-c3cccc(NS(=O)(=O)c4c(F)cccc4F)c3)n2)cc(OC)c1OC1CCN(CCS(C)(=O)=O)CC1
< 100 | COc1cc(N2CCN(CCS(C)(=O)=O)CC2)c(C)cc1Nc1nccc(-c2scnc2-c2cccc(NS(=O)(=O)c3c(F)cccc3F)c2)n1
< 100 | COc1cc(N2CCN(CCS(C)(=O)=O)CC2)c(C)cc1Nc1nccc(-c2sc(C3CCOCC3)nc2-c2cccc(NS(=O)(=O)c3c(F)cccc3F)c2)n1
< 100 | COc1cc(N2CCN(CCS(C)(=O)=O)CC2)c(C)cc1Nc1nccc(-c2sc(C)nc2-c2cccc(NS(=O)(=O)c3c(F)cccc3F)c2)n1
< 100 | CCOc1ccc(Nc2nccc(-c3sc(N4CCCC4)nc3-c3cccc(NS(=O)(=O)c4c(F)cccc4F)c3)n2)cc1N1CCN(CCS(C)(=O)=O)CC1
< 100 | COc1ccc(Nc2nccc(-c3sc(C(C)C)nc3-c3cccc(NS(=O)(=O)c4ccccc4)c3)n2)cc1N1CCN(CCC#N)CC1
< 100 | COc1ccc(Nc2nccc(-c3sc(C(C)C)nc3-c3cccc(NS(=O)(=O)c4c(F)cccc4F)c3)n2)cc1N(C)C
< 100 | COc1cc(N2CCN(CCS(C)(=O)=O)CC2)c(C)cc1Nc1nccc(-c2sc(CC(C)C)nc2-c2cccc(NS(=O)(=O)c3c(F)cccc3F)c2)n1
< 100 | CC(=O)N1CCN(c2ccc(Nc3nccc(-c4sc(C(C)C)nc4-c4cccc(NS(=O)(=O)c5ccccc5F)c4)n3)cn2)CC1
< 100 | COc1ccc(Nc2nccc(-c3sc(C(C)C)nc3-c3cccc(NS(=O)(=O)Cc4ccccc4)c3)n2)cc1N1CCN(CCS(C)(=O)=O)CC1
< 100 | COc1cc(N2CCN(CCS(C)(=O)=O)CC2)c(C)cc1Nc1nccc(-c2sc(C(C)C)nc2-c2cccc(NS(=O)(=O)c3ccco3)c2)n1
< 100 | COc1cc(N2CCN(CCS(C)(=O)=O)CC2)c(C)cc1Nc1nccc(-c2sc(C3CCOCC3)nc2-c2cccc(NS(=O)(=O)c3c(F)cccc3F)c2F)n1
< 100 | CC(C)c1nc(-c2cccc(NS(=O)(=O)c3c(F)cccc3F)c2)c(-c2ccnc(Nc3cccc(N4CCN(C)CC4)c3)n2)s1
< 100 | Cc1cc(N2CCC(N3CCCCC3)CC2)ccc1Nc1nccc(-c2sc(C(C)C)nc2-c2cccc(NS(=O)(=O)c3c(F)cccc3F)c2)n1
< 100 | CCNc1nc(-c2cccc(NS(=O)(=O)c3c(F)cccc3F)c2)c(-c2ccnc(Nc3cc(C)c(N4CCN(CCS(C)(=O)=O)CC4)cc3OC)n2)s1
